Like-named read-outs stand apart in the source and are kept apart here.
Assays:
IKZF2 = IKZF2 (Homo sapiens, UniProt Q96SW2+Q9UKS7); test: Prolabel quantification of IKZF2 protein levels in 293GT cells; assay type: cell-based
Method: (§1) The Prolabel system from DiscoverX was used to develop high-throughput and quantitative assays to measure changes in IKZF1, IKZF2 and GSPT1 protein levels in response to compounds. The prolabel tag was derived from the alpha fragment of beta galactosidase and has the following protein sequence: mssnslavvlqrrdwenpgvtqlnrlaahppfaswrnseeartdrpsqqlrslnge. The complementary fragment of beta-galactosidase (from DiscoverX), is added to the prolabel tag to form an active beta galactosidase enzyme whose activity can be precisely measured. In this way, the levels of a fusion protein with the prolabel tag can be quantified in cell lysates.
(§2) Lentiviral vectors, based on the Invitrogen pLenti6.2/V5 DEST backbone, were constructed that placed the prolabel tag upstream of IKZF1, IKZF2 or GSPT1 and expressed the fusion protein from a CMV promoter.
(§3) To ensure moderate and consistent expression of the prolabel fusion proteins across all cells in the population, stable cell lines were constructed from cells expressing a single copy of the construct. Lentivirus packaged with the constructs was made using the Virapower kit from Invitrogen.
(§4) The levels of prolabel tagged fusion proteins in compound treated cell lines were measured as follows:
(§5) Day 1, Cells were diluted to 1.0×10^6 cells/ml in normal growth medium. 17.5 μL of cells were plated in each well of a solid white 384 well plate. Plates were incubated overnight in a 37° C. tissue culture incubator.
(§6) Day 2, Serial dilutions of compounds were made in 384 well plates from 10 mM stocks. 15 μL of DMSO was added to each well of a 384 well plate. In the first column 15 μL of stock compound was added. The solution was mixed and 15 μL was transferred to the next column. This was repeated until 20 two-fold dilutions were prepared. 2.5 μL of diluted compounds were transferred into 60 μL of cell culture medium in another 384 well plate, and mixed well. 2.5 μL of this mixture was added to the plated cells. The final DMSO concentration was 0.5% and the highest concentration of compound was 50 μM. Plates were incubated overnight (e.g., about 14 h, 18 h, or 24 h) in a 37° C. tissue culture incubator.
(§7) Day 3, Plates were removed from the incubator and allowed to equilibrate at rt for 30 minutes. Prolabel substrate (DiscoverX PathHunter Prolabel Detection Kit, User manual: 93-0180) was added as described by the manufacturers protocols. Plates were incubated at rt for three hours and luminescence was read using an Envision reader (Perkin Elmer) Data was analyzed and visualized using the Spotfire software package.

IKZF1 = IKZF1 (Homo sapiens, UniProt Q13422+Q96SW2); test: Prolabel quantification of IKZF1 protein levels in 293GT cells; assay type: cell-based; conditions: Prolabel assay, read-out: IKZF1 EC50
Method: as §1, §2, §3, §4, §5, §6, §7

[1] = 24 h, 10 μM, 24 h, 293GT cells; read-out: IKZF2 % protein reduction at 10 μM, 24 h
[2] = Prolabel assay, 293GT cells; read-out: IKZF2 EC50

IKZF1, sequence (Q13422 whole entry): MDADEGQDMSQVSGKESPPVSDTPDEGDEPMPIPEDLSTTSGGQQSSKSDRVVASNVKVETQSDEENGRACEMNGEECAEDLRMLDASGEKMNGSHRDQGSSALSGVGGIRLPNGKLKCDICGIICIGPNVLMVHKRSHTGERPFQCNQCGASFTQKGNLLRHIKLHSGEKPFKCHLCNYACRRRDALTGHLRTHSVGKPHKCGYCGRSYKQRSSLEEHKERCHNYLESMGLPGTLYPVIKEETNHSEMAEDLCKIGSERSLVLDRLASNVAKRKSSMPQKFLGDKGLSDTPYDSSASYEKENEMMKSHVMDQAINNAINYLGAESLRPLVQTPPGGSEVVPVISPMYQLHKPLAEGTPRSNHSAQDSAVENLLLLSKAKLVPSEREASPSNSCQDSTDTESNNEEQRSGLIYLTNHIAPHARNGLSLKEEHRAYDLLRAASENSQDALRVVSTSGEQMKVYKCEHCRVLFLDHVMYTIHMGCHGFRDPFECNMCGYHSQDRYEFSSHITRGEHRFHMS
IKZF1, sequence (Q96SW2 whole entry): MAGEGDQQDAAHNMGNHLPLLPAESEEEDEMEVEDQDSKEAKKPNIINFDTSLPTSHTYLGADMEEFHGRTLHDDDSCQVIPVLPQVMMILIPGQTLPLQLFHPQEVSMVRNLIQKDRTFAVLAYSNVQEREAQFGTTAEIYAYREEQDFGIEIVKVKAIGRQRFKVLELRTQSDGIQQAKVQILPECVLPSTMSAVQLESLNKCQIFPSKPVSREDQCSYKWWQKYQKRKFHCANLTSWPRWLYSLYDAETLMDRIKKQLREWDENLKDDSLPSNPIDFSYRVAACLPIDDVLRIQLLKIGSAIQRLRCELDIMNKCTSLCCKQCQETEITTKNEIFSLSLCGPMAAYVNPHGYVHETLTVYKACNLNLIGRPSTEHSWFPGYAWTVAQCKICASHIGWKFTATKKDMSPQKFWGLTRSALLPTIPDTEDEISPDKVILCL
IKZF1, sequence (Q16531 whole entry partner): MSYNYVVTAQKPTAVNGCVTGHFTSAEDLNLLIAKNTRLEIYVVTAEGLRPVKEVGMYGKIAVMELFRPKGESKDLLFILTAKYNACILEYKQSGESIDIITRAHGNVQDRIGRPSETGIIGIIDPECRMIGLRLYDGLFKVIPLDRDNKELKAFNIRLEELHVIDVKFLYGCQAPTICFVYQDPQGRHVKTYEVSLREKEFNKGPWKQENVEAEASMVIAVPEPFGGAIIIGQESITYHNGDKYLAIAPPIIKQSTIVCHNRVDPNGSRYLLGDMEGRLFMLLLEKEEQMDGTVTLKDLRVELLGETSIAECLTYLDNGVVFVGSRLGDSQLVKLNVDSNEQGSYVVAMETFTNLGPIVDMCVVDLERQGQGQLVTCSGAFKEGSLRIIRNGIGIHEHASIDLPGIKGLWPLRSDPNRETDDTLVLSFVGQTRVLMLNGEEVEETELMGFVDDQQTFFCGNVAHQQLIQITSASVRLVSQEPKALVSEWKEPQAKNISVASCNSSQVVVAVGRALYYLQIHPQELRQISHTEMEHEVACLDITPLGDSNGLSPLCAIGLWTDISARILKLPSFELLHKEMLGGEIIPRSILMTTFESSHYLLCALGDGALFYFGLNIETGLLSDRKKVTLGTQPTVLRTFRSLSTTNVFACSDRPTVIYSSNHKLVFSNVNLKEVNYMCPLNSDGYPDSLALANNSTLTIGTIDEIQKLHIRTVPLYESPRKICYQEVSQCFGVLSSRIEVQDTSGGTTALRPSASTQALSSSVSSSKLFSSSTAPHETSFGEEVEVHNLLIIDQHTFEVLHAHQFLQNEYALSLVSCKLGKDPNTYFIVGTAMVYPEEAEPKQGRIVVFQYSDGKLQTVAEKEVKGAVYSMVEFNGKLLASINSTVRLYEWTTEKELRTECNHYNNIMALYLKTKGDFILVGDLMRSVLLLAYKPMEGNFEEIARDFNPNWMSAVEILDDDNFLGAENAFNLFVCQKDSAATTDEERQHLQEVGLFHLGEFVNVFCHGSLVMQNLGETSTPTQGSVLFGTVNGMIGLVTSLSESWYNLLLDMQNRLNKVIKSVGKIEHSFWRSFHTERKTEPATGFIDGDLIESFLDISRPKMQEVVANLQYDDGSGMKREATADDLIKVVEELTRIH
IKZF2, sequence (Q9UKS7 whole entry, the tested form may be a part): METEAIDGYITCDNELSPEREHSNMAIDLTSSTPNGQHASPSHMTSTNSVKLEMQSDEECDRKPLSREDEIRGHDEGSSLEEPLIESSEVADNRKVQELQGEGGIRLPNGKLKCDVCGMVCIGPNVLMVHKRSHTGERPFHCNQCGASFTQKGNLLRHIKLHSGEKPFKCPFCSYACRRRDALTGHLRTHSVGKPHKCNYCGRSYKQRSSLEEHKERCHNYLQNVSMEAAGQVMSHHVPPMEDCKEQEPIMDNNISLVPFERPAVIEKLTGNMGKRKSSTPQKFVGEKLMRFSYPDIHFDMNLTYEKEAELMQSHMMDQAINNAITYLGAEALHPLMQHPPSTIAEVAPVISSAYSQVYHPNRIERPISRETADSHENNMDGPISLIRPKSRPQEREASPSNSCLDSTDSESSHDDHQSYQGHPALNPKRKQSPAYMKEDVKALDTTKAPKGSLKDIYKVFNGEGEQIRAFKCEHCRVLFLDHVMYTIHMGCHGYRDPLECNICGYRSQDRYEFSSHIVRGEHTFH
IKZF2, sequence (Q96SW2 whole entry, the tested form may be a part): as the sequence (Q96SW2 whole entry) above
IKZF2, sequence (Q16531 whole entry partner, the tested form may be a part): as the sequence (Q16531 whole entry partner) above

SMILES | inhibition at 10 µM (IKZF2; [1]) | DC50 (IKZF2; [2]) | DC50 (IKZF1) | IKZF2 protein levels as compared to the control (DMSO) (IKZF2; Prolabel assay in HEK293GT cells, bar graph) | inhibition at 10 µM (IKZF2; 10 μM, 24 h, 293GT cells; read-out: IKZF2 % protein reduction at 10 μM, 24 h)
COc1ccccc1CN1CCC(c2ccc3c(c2)CN(C2CCC(=O)NC2=O)C3=O)CC1 (stereo not shown) [Compound I-67, 3-(5-(1-(2-methoxybenzyl)piperidin-4-yl)-1-oxoisoindolin-2-yl)piperidine-2,6-dione] | 70% | 58 nM | > 30000 nM |  | 
CCCc1ccc(CN2CCC(c3ccc4c(c3)CN(C3CCC(=O)NC3=O)C4=O)CC2)cc1 (stereo not shown) [Compound I-75, 3-(1-oxo-5-(1-(4-propylbenzyl)piperidin-4-yl)isoindolin-2-yl)piperidine-2,6-dione] | 80% | 20 nM | > 30000 nM |  | 
O=C1CCC(N2Cc3cc(C4CCN(Cc5ccc(C(F)(F)F)cn5)CC4)ccc3C2=O)C(=O)N1 (stereo not shown) [Compound I-78, 3-(1-oxo-5-(1-((5-(trifluoromethyl)pyridin-2-yl)methyl)piperidin-4-yl)isoindolin-2-yl)piperidine-2,6-dione] | 40% | 210 nM | > 30000 nM |  | 
O=C1CCC(N2Cc3cc(C4CCN(Cc5ccccc5OC(F)F)CC4)ccc3C2=O)C(=O)N1 (stereo not shown) [Compound I-80, 3-(5-(1-(2-(difluoromethoxy)benzyl)piperidin-4-yl)-1-oxoisoindolin-2-yl)piperidine-2,6-dione] | 60% | 12 nM | > 30000 nM |  | 
O=C1CCC(N2Cc3cc(C4CCN(Cc5cccc6c5OCCO6)CC4)ccc3C2=O)C(=O)N1 (stereo not shown) [Compound I-82, 3-(5-(1-((2,3-dihydrobenzo[b][1,4]dioxin-5-yl)methyl)piperidin-4-yl)-1-oxoisoindolin-2-yl)piperidine-2,6-dione] | 60% | 4 nM | > 30000 nM |  | 
O=C1CCC(N2Cc3cc(C4CCN(Cc5ccc6c(c5)OCCO6)CC4)ccc3C2=O)C(=O)N1 (stereo not shown) [Compound I-83, 3-(5-(1-((2,3-dihydrobenzo[b][1,4]dioxin-6-yl)methyl)piperidin-4-yl)-1-oxoisoindolin-2-yl)piperidine-2,6-dione] | 80% | 52 nM | > 30000 nM |  | 
CC(C)(C)c1ccc(CN2CCC(c3ccc4c(c3)CN(C3CCC(=O)NC3=O)C4=O)CC2)cc1 (stereo not shown) [Compound I-84, 3-(5-(1-(4-(tert-butyl)benzyl)piperidin-4-yl)-1-oxoisoindolin-2-yl)piperidine-2,6-dione] |  | 15 nM | > 30000 nM |  | 60%
O=C1CCC(N2Cc3cc(C4CCN(Cc5ccc6c(c5)OC(F)(F)O6)CC4)ccc3C2=O)C(=O)N1 (stereo not shown) [Compound I-87, 3-(5-(1-((2,2-difluorobenzo[b][1,3]dioxol-5-yl)methyl)piperidin-4-yl)-1-oxoisoindolin-2-yl)piperidine-2,6-dione] | 80% | 13 nM | > 30000 nM |  | 
O=C1CCC(N2Cc3cc(C4CCN(Cc5ncccn5)CC4)ccc3C2=O)C(=O)N1 (stereo not shown) [Compound I-95, 3-(1-oxo-5-(1-(pyrimidin-2-ylmethyl)piperidin-4-yl)isoindolin-2-yl)piperidine-2,6-dione] | 20% | 130 nM | > 30000 nM |  | 
O=C1CCC(N2Cc3cc(C4CCN(Cc5ccc(F)cc5F)CC4)ccc3C2=O)C(=O)N1 (stereo not shown) [Compound I-101, 3-(5-(1-(2,4-difluorobenzyl)piperidin-4-yl)-1-oxoisoindolin-2-yl)piperidine-2,6-dione] | 60% | 17 nM | > 30000 nM |  | 
O=C1CCC(N2Cc3cc(C4CCN(Cc5ccccc5C5CC5)CC4)ccc3C2=O)C(=O)N1 (stereo not shown) [Compound I-104, 3-(5-(1-(2-cyclopropylbenzyl)piperidin-4-yl)-1-oxoisoindolin-2-yl)piperidine-2,6-dione] | 60% | 5 nM | > 30000 nM |  | 
O=C1CCC(N2Cc3cc(C4CCN(Cc5ccccc5C(F)(F)F)CC4)ccc3C2=O)C(=O)N1 (stereo not shown) [Compound I-106, 3-(1-oxo-5-(1-(2-(trifluoromethyl)benzyl)piperidin-4-yl)isoindolin-2-yl)piperidine-2,6-dione] | 50% | 14 nM | > 30000 nM |  | 
O=C1CCC(N2Cc3cc(C4CCN(Cc5cccc6cccnc56)CC4)ccc3C2=O)C(=O)N1 (stereo not shown) [Compound I-114, 3-(1-oxo-5-(1-(quinolin-8-ylmethyl)piperidin-4-yl)isoindolin-2-yl)piperidine-2,6-dione] | 40% | 29 nM | > 50000 nM |  | 
Cn1cc(CN2CCC(c3ccc4c(c3)CN(C3CCC(=O)NC3=O)C4=O)CC2)cn1 (stereo not shown) [Compound I-115, 3-(5-(1((1-methyl-1H-pyrazol-4-yl)methyl)piperidin-4-yl)-1-oxoisoindolin-2-yl)piperidine-2,6-dione] | 60% | 72 nM | > 30000 nM |  | 
O=C1CCC(N2Cc3cc(C4CCN(Cc5cn[nH]c5)CC4)ccc3C2=O)C(=O)N1 (stereo not shown) [Compound I-116, 3-(5-(1-((1H-pyrazol-4-yl)methyl)piperidin-4-yl)-1-oxoisoindolin-2-yl)piperidine-2,6-dione] | 60% | 160 nM | > 30000 nM |  | 
Cn1ccc(CN2CCC(c3ccc4c(c3)CN(C3CCC(=O)NC3=O)C4=O)CC2)n1 (stereo not shown) [Compound I-117, 3-(5-(1-((1-methyl-1H-pyrazol-3-yl)methyl)piperidin-4-yl)-1-oxoisoindolin-2-yl)piperidine-2,6-dione] | 50% | 50 nM | > 30000 nM |  | 

Second part, led by results:

inhibition at 10 µM (IKZF2; [1]) | DC50 (IKZF2; [2]) | DC50 (IKZF1) | IKZF2 protein levels as compared to the control (DMSO) (IKZF2; Prolabel assay in HEK293GT cells, bar graph) | SMILES | inhibition at 10 µM (IKZF2; 10 μM, 24 h, 293GT cells; read-out: IKZF2 % protein reduction at 10 μM, 24 h)
75% | 11 nM | > 30000 nM |  | O=C1CCC(N2Cc3cc(C4CCN(Cc5ccc(CF)cc5)CC4)ccc3C2=O)C(=O)N1 (stereo not shown) [Compound I-63, 3-(5-(1-(4-(fluoromethyl)benzyl)piperidin-4-yl)-1-oxoisoindolin-2-yl)piperidine-2,6-dione] | 
70% | 9 nM | > 30000 nM |  | CCc1ccc(CN2CCC(c3ccc4c(c3)CN(C3CCC(=O)NC3=O)C4=O)CC2)cc1 (stereo not shown) [Compound I-66, 3-(5-(1-(4-ethylbenzyl)piperidin-4-yl)-1-oxoisoindolin-2-yl)piperidine-2,6-dione] | 
80% | 15 nM | > 30000 nM | decreased | Cc1ccc(CN2CCC(c3ccc4c(c3)CN(C3CCC(=O)NC3=O)C4=O)CC2)cc1F (stereo not shown) [Compound I-69, 3-(5-(1-(3-fluoro-4-methylbenzyl)piperidin-4-yl)-1-oxoisoindolin-2-yl)piperidine-2,6-dione] | 
55% | 4500 nM | > 30000 nM |  | O=C1CCC(N2Cc3cc(C4CCN(Cc5ccc(C(=O)O)cc5)CC4)ccc3C2=O)C(=O)N1 (stereo not shown) [Compound I-72, 4-((4-(2-(2,6-dioxopiperidin-3-yl)-1-oxoisoindolin-5-yl)piperidin-1-yl)methyl)benzoic acid] | 
70% | 11 nM | > 30000 nM |  | O=C1CCC(N2Cc3cc(C4CCN(Cc5cccc(C(F)F)c5)CC4)ccc3C2=O)C(=O)N1 (stereo not shown) [Compound I-73, 3-(5-(1-(3-(difluoromethyl)benzyl)piperidin-4-yl)-1-oxoisoindolin-2-yl)piperidine-2,6-dione] | 
55% | 2100 nM | > 30000 nM |  | O=C1CCC(N2Cc3cc(C4CCN(Cc5cccc(C(=O)O)c5)CC4)ccc3C2=O)C(=O)N1 (stereo not shown) [Compound I-74, 3-((4-(2-(2,6-dioxopiperidin-3-yl)-1-oxoisoindolin-5-yl)piperidin-1-yl)methyl)benzoic acid] | 
75% | 17 nM | > 30000 nM |  | O=C1CCC(N2Cc3cc(C4CCN(Cc5ccc(C(F)(F)F)cc5)CC4)ccc3C2=O)C(=O)N1 (stereo not shown) [Compound I-76, 3-(1-oxo-5-(1-(4-(trifluoromethyl)benzyl)piperidin-4-yl)isoindolin-2-yl)piperidine-2,6-dione] | 
75% | 3 nM | > 30000 nM |  | O=C1CCC(N2Cc3cc(C4CCN(Cc5cccc(OC(F)F)c5)CC4)ccc3C2=O)C(=O)N1 (stereo not shown) [Compound I-79, 3-(5-(1-(3-(difluoromethoxy)benzyl)piperidin-4-yl)-1-oxoisoindolin-2-yl)piperidine-2,6-dione] | 
65% | 140 nM | > 30000 nM |  | O=C1CCC(N2Cc3cc(C4CCN(Cc5cc[nH]c5)CC4)ccc3C2=O)C(=O)N1 (stereo not shown) [Compound I-119, 3-(5-(1-((1H-pyrrol-3-yl)methyl)piperidin-4-yl)-1-oxoisoindolin-2-yl)piperidine-2,6-dione] | 

Source: patent US11053218B2, “3-(1-oxoisoindolin-2-yl)piperidine-2,6-dione derivatives and uses thereof” (Novartis AG, priority 2017, dated 2021)
